Literature values in patent US20040157330A1, “Compositions and methods for targeted biological delivery of molecular carriers” (Arizeke Pharmaceuticals, Inc., priority 2003, published 2004).

Molecular target: human transferrin receptor (Homo sapiens, UniProt P02786)
Settings: for binding to the human transferrin receptor: without inhibiting transferrin binding

Chain of human transferrin receptor (P02786 whole entry): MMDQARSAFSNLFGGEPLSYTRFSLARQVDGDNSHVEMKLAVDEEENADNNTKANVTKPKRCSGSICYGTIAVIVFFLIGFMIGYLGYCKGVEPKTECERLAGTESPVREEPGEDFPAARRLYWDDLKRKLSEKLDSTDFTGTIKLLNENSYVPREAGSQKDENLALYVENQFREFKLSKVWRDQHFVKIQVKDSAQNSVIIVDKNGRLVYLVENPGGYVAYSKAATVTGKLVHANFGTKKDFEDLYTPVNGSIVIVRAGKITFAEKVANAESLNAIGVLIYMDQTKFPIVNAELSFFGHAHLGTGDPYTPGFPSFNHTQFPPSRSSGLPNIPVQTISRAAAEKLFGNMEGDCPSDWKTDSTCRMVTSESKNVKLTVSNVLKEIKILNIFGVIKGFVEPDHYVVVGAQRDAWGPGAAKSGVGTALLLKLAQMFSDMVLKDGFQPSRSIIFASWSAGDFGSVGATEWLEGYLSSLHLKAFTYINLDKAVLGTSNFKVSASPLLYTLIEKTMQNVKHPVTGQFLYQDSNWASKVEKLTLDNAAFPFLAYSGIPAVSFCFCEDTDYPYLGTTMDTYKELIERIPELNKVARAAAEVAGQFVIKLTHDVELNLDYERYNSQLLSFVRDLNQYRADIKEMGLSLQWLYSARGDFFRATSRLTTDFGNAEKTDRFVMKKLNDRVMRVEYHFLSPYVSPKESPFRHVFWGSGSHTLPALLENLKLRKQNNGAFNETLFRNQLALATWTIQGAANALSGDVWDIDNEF

THRPPMWSPVWP
Kd (calculated, similar to the binding affinity of transferrin): 0.015 µM | binding to the human transferrin receptor: bind specifically

HAIYPRH
binding to the human transferrin receptor: bind specifically
